Data: US9840481B2, “Allosteric modulators of nicotinic acetylcholine receptors” (MERCK SHARP & DOHME CORP., priority 2016, dated 2017)
Like-named read-outs stand apart in the source and are kept apart here.

Molecular target: T1, human α7 nAChR stably expressed in a HEK cell line (with human RIC-3) (Homo sapiens, UniProt P36544)
T1 construct: PrecisION hnAChR α7/RIC-3
Test: Automated patch-clamp electrophysiology functional assay (Assay A), IonFlux HT, whole-cell population patch
Type: cell-based
Method: The α7 nAChR positive allosteric modulator (PAM) activity of the present compounds may be tested using assays known in the art. The α7 nAChR PAMs described herein have activities in an automated patch-clamp electrophysiology functional assay as described in the examples. The assay was performed using the IonFlux HT in a whole-cell, population patch configuration. See Golden et al. Assay Drug Dev. Technol. (2011) 9:608-619. The compounds were assessed for their ability to modulate the function of the human α7 nAChR stably expressed in a HEK cell line both in the presence, and in the absence of the natural α7 agonist acetylcholine. By performing a series of such measurements at different concentrations, the effective concentration of the α7 nAChR PAMs (EC50) was determined. See Spencer et al. Assay Drug Dev. Technol. (2012) 10:313-324.
Direct activation of α7 (agonism), and potentiation of 5 acetylcholine-evoked α7 currents was determined as follows:
Automated Patch-Clamp Electrophysiology Functional Assay (Assay A)
Automated patch-clamp electrophysiology was performed using the IonFlux HT (Fluxion Biosciences Inc., San Francisco, Calif.) in the whole-cell, population patch configuration. Test compounds were assessed for their ability to modulate the function of the α7 nicotinic acetylcholine receptor both in the presence, and in the absence of the natural α7 agonist acetylcholine. A HEK cell line stably expressing both human RIC-3 and human α7 (PrecisION hnAChR α7/RIC-3, Eurofins Pharma, St. Charles, Mo.) was cultured in 175 cm^2 triple-layer tissue culture flasks to no more than 90% confluency in DMEM/F-12 growth media supplemented with 10% heat-inactivated fetal bovine serum, 1% non-essential amino acids, 0.625 μg/mL Puromycin, and 400 μg/mL Geneticin. Immediately prior to assay, cells were detached by first aspirating growth media, rinsing with Dulbecco's phosphate buffered saline, and then adding 10 mL of Accutase (Innovative Cell Technologies, San Diego, Calif.) to the flask and then incubating at 37° C. for 5 minutes. Detached cells were then recovered by the addition of 40 mL of CHO-serum-free media supplemented with 25 mM HEPES, and rocked gently in a 50 mL conical tube for 20 minutes prior to patch-clamp assay. After recovery, cells were pelleted by centrifugation at 1,000 RPM for 1 minute in a compact bench top centrifuge; recovery media was aspirated and cells were resuspended in external recording solution (150 mM NaCl, 5 mM KCl, 2 mM CaCl2, 1 mM MgCl2, 10 mM HEPES, 12 mM dextrose) to a density of 5.0×10^6 cells/mL. The cell suspension was added to the cell inlet wells on an IonFlux HT population patch plate which had previously been rinsed and primed with deionized H2O. Test compounds were serially diluted in DMSO and then resuspended to the final test concentration in external recording solution, with, or without […] acetylcholine added to the external recording solution; test compounds were then transferred to the IonFlux HT population patch plate. Internal recording solution (110 mM TrisPO4, 28 mM TrisBase, 0.1 mM CaCl2, 2 mM MgCl2, 11 mM EGTA, 4 mM MgATP) was added to the internal recording solution inlet wells on the IonFlux HT patch plate previously loaded with cells and test compounds, and the plate loaded into the IonFlux HT instrument. A protocol was executed on the IonFlux HT to trap the cells, break into the cells, and establish the whole-cell recording configuration; cells were voltage-clamped at a holding potential of −60 mV for the duration of the experiment, all experiments were conducted at room temperature, and the IonFlux HT injection pressure was 8 psi for solution applications. Upon establishing the whole-cell configuration, external recording solution was perfused into the recording chambers for 120 seconds and then 40 μM acetylcholine was applied for 1 second and immediately washed off with external recording solution for 60 seconds. […]

[1] = automated patch-clamp electrophysiology functional assay (Assay A), potency class by EC50, read-out: α7 nAChR Potency
[2] = electrophysiology EC50, HEK cells expressing human α7/RIC-3, 40 μM acetylcholine, holding potential −60 mV, room temperature, read-out: α7 nAChR EC50

T1 sequence (P36544 23-502): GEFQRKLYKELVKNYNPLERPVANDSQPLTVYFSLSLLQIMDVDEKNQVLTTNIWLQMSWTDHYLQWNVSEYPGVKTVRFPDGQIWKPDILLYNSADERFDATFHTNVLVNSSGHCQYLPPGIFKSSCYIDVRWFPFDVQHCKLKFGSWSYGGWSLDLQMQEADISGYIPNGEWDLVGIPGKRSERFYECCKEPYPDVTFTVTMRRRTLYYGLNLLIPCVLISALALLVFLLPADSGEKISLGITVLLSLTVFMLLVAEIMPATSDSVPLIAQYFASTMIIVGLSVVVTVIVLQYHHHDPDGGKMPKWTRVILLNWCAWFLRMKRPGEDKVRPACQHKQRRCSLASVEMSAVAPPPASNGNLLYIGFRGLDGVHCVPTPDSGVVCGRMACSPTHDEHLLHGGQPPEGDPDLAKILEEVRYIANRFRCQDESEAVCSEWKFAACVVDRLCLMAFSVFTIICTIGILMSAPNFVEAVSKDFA

Row | SMILES | EC50 [1] | EC50 [2]
1 | Cc1ncoc1-c1noc([C@@H]2C[C@H]2c2ccc(S(N)(=O)=O)cc2)n1 [Example D31] | 500 to 5000 nM | –
2 | CC1(C)[C@H](c2ccc(S(N)(=O)=O)cc2)[C@H]1c1nc(C2CCC2)no1 [Example B3] | 5000 to 50000 nM | 8700 nM
3 | CC1(C)[C@@H](c2ccc(S(N)(=O)=O)cc2)[C@@H]1c1nc(C2CCC2)no1 [Example D7] | 100 to 500 nM | –
4 | CC1(C)[C@@H](c2ccc(S(N)(=O)=O)cc2)[C@@H]1c1noc(-c2cnc(SCC(F)(F)F)o2)n1 [Example I18] | 500 to 5000 nM | 1300 nM
5 | CC1(C)[C@@H](c2ccc(S(N)(=O)=O)cc2)[C@@H]1c1noc(C2CC(O)C2)n1 (stereo partly shown) [Example I30] | 500 to 5000 nM | 3800 nM
6 | NS(=O)(=O)c1ccc([C@@H]2C[C@H]2c2nc(C3(c4ccccc4)CC3)no2)cc1 [Example D23] | 500 to 5000 nM | 2100 nM
7 | CC1(C)[C@@H](c2ccc(S(N)(=O)=O)cc2)[C@@H]1c1noc(Cn2c(=O)oc3ccc(Cl)cc32)n1 [Example I5] | 500 to 5000 nM | –
8 | CCc1coc([C@@H]2C[C@H]2c2ccc(S(N)(=O)=O)cc2)n1 [Example K6] | 500 to 5000 nM | –
9 | CC1(C)[C@@H](c2ccc(S(N)(=O)=O)cc2)[C@@H]1c1noc(CCC2CC2)n1 [Example 2, 4-((1S,3S)-3-(5-(2-Cyclopropylethyl)-1,2,4-oxadiazol-3-yl)-2,2-dimethylcyclopropyl)benzenesulfonamide] | 100 to 500 nM | –
10 | CC(C)c1noc([C@H]2[C@H](c3ccc(S(N)(=O)=O)cc3)C2(F)F)n1 [Example D1] | 100 to 500 nM | 120 nM
11 | Cc1nc([C@@H]2C[C@H]2c2ccc(S(N)(=O)=O)cc2)sc1-c1ccccc1 [Example 16, 4-[(1R,2R)-2-(4-Methyl-5-phenyl-1,3-thiazol-2-yl)cyclopropyl]benzenesulfonamide] | ≤ 100 nM | 98 nM
12 | NS(=O)(=O)c1ccc([C@@H]2[C@@H](c3nc(C4CCCC4)no3)C2(F)F)cc1 [Example B19] | 100 to 500 nM | 370 nM
13 | NS(=O)(=O)c1ccc([C@@H]2C[C@H]2c2noc(-c3cccc(F)c3)n2)cc1 [Example H15] | 100 to 500 nM | 190 nM
14 | CC1(C)[C@@H](c2ccc(S(N)(=O)=O)cc2)[C@@H]1c1noc(-c2cscn2)n1 [Example I6] | 500 to 5000 nM | –
15 | CC1(C)[C@@H](c2ccc(S(N)(=O)=O)cc2)[C@@H]1c1nc(C2CCCCC2)no1 [Example D3] | 100 to 500 nM | 150 nM
16 | NS(=O)(=O)c1ccc([C@@H]2C[C@H]2c2nc(-c3ccccc3C(F)(F)F)no2)cc1 [Example C6] | 500 to 5000 nM | –
17 | CC1(C)[C@@H](c2ccc(S(N)(=O)=O)cc2)[C@@H]1c1noc(-c2cnccc2C(F)(F)F)n1 [Example I20] | 100 to 500 nM | –
18 | CC1(C)[C@@H](c2ccc(S(N)(=O)=O)cc2)[C@@H]1c1nnc(C2CCCCC2)s1 [Example G13] | 500 to 5000 nM | 2200 nM
19 | NS(=O)(=O)c1ccc(C2CC2c2coc(-c3ccccc3)n2)cc1 (stereo not drawn) [Example 24, 4-[trans-2-(2-Phenyl-1,3-oxazol-4-yl)cyclopropyl]benzenesulfonamide] | 500 to 5000 nM | 2400 nM
20 | NS(=O)(=O)c1ccc([C@@H]2C[C@H]2c2nc(-c3ccccc3)cs2)cc1 [Example K9] | 500 to 5000 nM | 670 nM
21 | NS(=O)(=O)c1ccc([C@@H]2C[C@H]2c2nc(-c3ccc(F)cc3C(F)(F)F)no2)cc1 [Example C7] | 500 to 5000 nM | 960 nM
22 | CC1(C)[C@H](c2ccc(S(N)(=O)=O)cc2)[C@H]1c1noc(C2(C(F)(F)F)CC2)n1 [Example L19] | 500 to 5000 nM | –
23 | CC1(C)[C@@H](c2ccc(S(N)(=O)=O)cc2)[C@@H]1c1nnc(CC2CC2)o1 [Example G11] | 500 to 5000 nM | 4500 nM
24 | NS(=O)(=O)c1ccc([C@@H]2C[C@H]2c2ncc(-c3cccc(F)c3)s2)cc1 [Example K20] | 100 to 500 nM | –
25 | NS(=O)(=O)c1ccc([C@@H]2C[C@H]2c2nc(-c3cccnc3C3CC3)no2)cc1 [Example D24] | 100 to 500 nM | 230 nM
26 | CC1(C)[C@@H](c2ccc(S(N)(=O)=O)cc2)[C@@H]1c1ncc(C2CCCC2)s1 [Example K16] | 500 to 5000 nM | –
27 | CC1(C)[C@H](c2ccc(S(N)(=O)=O)cc2)[C@H]1c1cnn(-c2cccc(F)c2)c1 [Example 13, 4-{(1R,3R)-3-[1-(3-Fluorophenyl)-1H-pyrazol-4-yl]-2,2-dimethylcyclopropyl}benzenesulfonamide] | 100 to 500 nM | 340 nM
28 | NS(=O)(=O)c1ccc([C@@H]2C[C@H]2c2noc(C3(C(F)(F)F)CC3)n2)cc1 [Example I35] | 500 to 5000 nM | 690 nM
29 | NS(=O)(=O)c1ccc([C@@H]2C[C@H]2c2nnc(C3CCCC3)s2)cc1 [Example G16] | 500 to 5000 nM | –
30 | CC1(C)[C@@H](c2ccc(S(N)(=O)=O)cc2)[C@@H]1c1nc(C2CC(F)(F)C2)no1 [Example D18] | ≤ 100 nM | 95 nM

Second part, the compound after the results:

Row | EC50 [1] | EC50 [2] | SMILES
31 | 100 to 500 nM | 460 nM | CC1(C)[C@H](c2ccc(S(N)(=O)=O)cc2)[C@H]1c1cc(-c2ccccc2)no1 [Example 11, 4-[(1R,3R)-2,2-Dimethyl-3-(3-phenylisoxazol-5-yl)cyclopropyl]benzenesulfonamide]
32 | 500 to 5000 nM | 1200 nM | CC1(C)[C@@H](c2ccc(S(N)(=O)=O)cc2)[C@@H]1c1noc(-c2ccc(C#N)cc2)n1 [Example H12]
33 | 500 to 5000 nM | 640 nM | CC1(C)[C@@H](c2ccc(S(N)(=O)=O)cc2)[C@@H]1c1cc(-c2ccccc2)no1 [Example L4]
34 | ≤ 100 nM | 83 nM | NS(=O)(=O)c1ccc(C2C(c3nc(-c4ccccc4)no3)C23CCCC3)cc1 (single isomer, unassigned) [Example M3]
35 | 500 to 5000 nM | – | CC1(C)C(c2nc(-c3ccccc3)no2)C1c1ccc(S(N)(=O)=O)cc1F (single isomer, unassigned) [Example M7]
36 | 500 to 5000 nM | 860 nM | CC1(C)C(c2ccc(S(N)(=O)=O)c(F)c2)C1c1nc(-c2ccccc2)no1 (single isomer, unassigned; enantiomer a) [Example 32, 4-[trans-2,2-Dimethyl-3-(3-phenyl-1,2,4-oxadiazol-5-yl)cyclopropyl]-2-fluorobenzenesulfonamide, enantiomer A]
37 | 500 to 5000 nM | – | CC1(C)[C@@H](c2ccc(S(N)(=O)=O)cc2)[C@@H]1c1nc(-c2ccc(F)cc2C(F)(F)F)no1 [Example C2]
38 | 500 to 5000 nM | 800 nM | NS(=O)(=O)c1ccc([C@@H]2C[C@H]2c2nc(-c3cncc(F)c3)no2)cc1 [Example D12]
39 | 500 to 5000 nM | 960 nM | CC1(C)[C@H](c2ccc(S(N)(=O)=O)cc2)[C@H]1c1nc(-c2c(F)cccc2F)no1 [Example A11]
40 | 100 to 500 nM | – | NS(=O)(=O)c1ccc([C@@H]2C[C@H]2c2nc(-c3ccccc3F)no2)cc1 [Example C20]
41 | 500 to 5000 nM | 4400 nM | Cn1cc([C@H]2[C@H](c3ccc(S(N)(=O)=O)cc3)C2(C)C)nc1-c1cccc(F)c1 [Example 35, 4-{(1S,3S)-3-[2-(3-Fluorophenyl)-1-methyl-1H-imidazol-4-yl]-2,2-dimethylcyclopropyl}benzenesulfonamide]
42 | 500 to 5000 nM | 820 nM | CC1(C)[C@@H](c2ccc(S(N)(=O)=O)cc2)[C@@H]1c1nc(-c2cncc(F)c2)no1 [Example D6]
43 | 500 to 5000 nM | – | CC1(C)[C@@H](c2ccc(S(N)(=O)=O)cc2)[C@@H]1c1nc(-c2cnccc2C(F)(F)F)no1 [Example D2]
